The results in this text go back to US20110184188A1, “Insecticidal Benzenedicarboxamide Derivative” (priority 2008, published 2011).

Like-named read-outs stand apart in the source and are kept apart here.

A short description of series [1]: logP(neutral) by reverse phase chromatography, potassium dihydrogen phosphate / acetonitrile. Type of series: physicochemical.
In the next series the test system is Myzus persicae. The experiment in a line: Test to Myzus persicae (Brassica pekinensis leaf disc spray). The following applies: foliar, read-out: pesticide effect, insect mortality. Type of series: in vivo. As to the method: Solvent: acetone 78.0 parts by weight and dimethylformamide 1.5 parts by weight Emulsifier: alkyl aryl polyglycol ether 0.5 parts by weight
(§1) In order to prepare preparations of suitable active compounds, 1 part by weight of each of the active compounds was blended with the above amount of the solvent containing the above amount of the emulsifier, and the resulting mixture was diluted to a prescribed concentration with water.
On a leaf disc of Brassica pekinensis, Myzus persicae including all growth stage was inoculated. The solution diluted with water and having a prescribed concentration of the active compound was sprayed by a spray gun. Insect mortality was calculated after prescribed days elapsed. 100% insect mortality means that all the individuals died, and 0% insect mortality means that all the individuals were alive.

In series [2] the test system is Spodoptera litura third instar larvae. In words: Test to larva of Spodoptera litura (sweet potato leaf dip). Type of series: in vivo. The settings on record: foliar, 168 h, read-out: insect mortality. The method, then: Test to Larva of Spodoptera litura
(§2) Solvent: dimethylformamide 3 parts by weight Emulsifier: polyoxyethylene alkyl phenyl ether 1 part by weight
as §1
Leaves of sweet potato were immersed in the tested liquid medication of a prescribed concentration diluted with water. After air drying of the liquid medication, the leaves were put into a petri dish of a diameter of 9 cm, and 10 Spodoptera litura third instar larvae were released in the petri dish, and the petri dish was placed in a constant temperature room of 25° C. Two days later and four days later, leaves of sweet potato were added. Seven days later, the number of dead insects was examined, and insect mortality was calculated.
In the present test, results of 2 petri dishes for each compound were averaged.

The test system of series [3] is Myzus persicae resistant to organophosphorus pesticide and carbamate agent. In words: Test to Myzus persicae resistant to organophosphorus pesticide and carbamate agent (egg plant seedlings). In kind it is in vivo. The settings on record: 168 h, effective ingredient concentration 100 ppm, seven days after spraying, read-out: pesticide effect, insect mortality. As to the method:
Test to Myzus persicae resistant to organophosphorus pesticide and carbamate agent
as §2, §1
On egg plant seedlings planted in a plastic pot of a diameter of 6 cm, 30 bred Myzus persicae resistant to organophosphorus pesticide and carbamate agent per one seedling were inoculated. After 1 day elapsed since the inoculation, a sufficient amount of the solution diluted with water and having a prescribed concentration of the active compound was sprayed. After the spraying, the pot was allowed to stand in a greenhouse of 28° C. After seven days elapsed since the spraying, insect mortality was calculated. The test was carried out twice.

Where [4] appears, read: potassium dihydrogen phosphate / acetonitrile.
Where [5] appears, read: 0.0025M potassium dihydrogen phosphate aqueous solution / acetonitrile, linear gradient 10-95% acetonitrile.
[6] abbreviates: Spodoptera litura third instar larvae, active ingredient concentration 20 ppm, seven days later, 25° C.

The melting point is the temperature of the solid-liquid transition. `CCN(CC)C(=O)c1c(Cl)cccc1C(=O)Nc1ccc(Cn2nc(C(F)(F)F)cc2C(F)(F)F)cc1C`: the melting point fell in the range of 105 to 107 °C.

Compound `Cc1cc(Cn2nc(C(F)(F)F)cc2C(F)(F)F)ccc1NC(=O)c1ccccc1C(=O)NC(C)C` registered a melting point of 170 to 172 °C.

Turning to `Cc1cc(Cn2nc(C(F)(F)F)cc2C(F)(F)F)ccc1NC(=O)c1cccc(Cl)c1C(=O)NC(C)(C)C(=O)O`, the melting point lay in the range of 179 to 184 °C.

`CCC(C)NC(=O)c1c(Cl)cccc1C(=O)Nc1ccc(Cn2nc(C(F)(F)F)cc2C(F)(F)F)cc1C` (stereo not drawn) returned a melting point of 187 to 188 °C.

`CCC(C)NC(=O)c1cccc(Cl)c1C(=O)Nc1ccc(Cn2nc(C(F)(F)F)cc2C(F)(F)F)cc1C` (stereo not drawn) registered a melting point of 211 to 212 °C.

Compound `Cc1cc(Cn2nc(C(F)(F)C(F)(F)F)nc2C(F)(F)F)ccc1NC(=O)c1cccc(Cl)c1C(=O)NC(C)(C)CO` registered a melting point of 105 to 110 °C.

With `Cc1cc(Cn2nc(C(F)(F)C(F)(F)F)nc2C(F)(F)F)ccc1NC(=O)c1cccc(Cl)c1C(=O)NC(C)(C)C=NO`, the melting point was 203 to 206 °C.

As for `CSC[C@H](C)NC(=O)c1c(Cl)cccc1C(=O)Nc1ccc(Cn2c(C)nnc2C(F)(F)F)cc1C`, the melting point was in the range of 168 to 170 °C.

`Cc1cc(Cn2nc(C(F)(F)C(F)(F)F)nc2C(F)(F)F)ccc1NC(=O)c1cccc(-c2cc(C(F)(F)F)cc(C(F)(F)F)c2)c1C(=O)N[C@@H](C)CS(C)(=O)=O` registered a melting point of 201 °C.

Consider `CC(C)NC(=O)c1ccccc1C(=O)Nc1ccc(Cn2nc(C(F)(F)F)cc2C(F)(F)F)cc1`, for which the melting point was in the range of 176 to 178 °C.

On to `Cc1nc(Cn2cc(C(F)(F)C(F)(F)F)c(C(F)(F)C(F)(F)F)n2)ccc1NC(=O)c1cccc(I)c1C(=O)NC(C)C[S+](C)[O-]` (mixture of isomers) [13-159], for which the “logP (neutral)” value in series [1] (setting [4]) is 3.08.

With `CSC[C@H](C)NC(=O)c1c(C(=O)Nc2ccc(Cn3nc(C(F)(F)F)cc3C(F)(F)F)nc2C)ccc(F)c1Br` [9-10], the “logP (neutral)” value in series [1] (setting [5]) is listed as “logP (neutral) 3.74”.

As for `Cc1cc(Cn2nc(C(F)(F)C(F)(F)F)nc2C(F)(F)F)ccc1NC(=O)c1ccc(C(F)(F)F)c(Cl)c1C(=O)N[C@@H](C)C[S+](C)[O-]` (stereo partly drawn) [9-24], the “logP (neutral)” value in series [1] (setting [5]) is reported as “logP (neutral) 3.13”.

In the case of `Cc1nc(Cn2nc(C(F)(F)F)cc2C(F)(F)F)ccc1NC(=O)c1cc(Cl)cc(Cl)c1C(=O)N[C@@H](C)CS(C)(=O)=O` [10-3], in series [1] (setting [4]), the “logP (neutral)” value is 3.10.

For `Cc1cc(Cn2nc(C(F)(F)C(F)(F)F)nc2C(F)(F)F)ccc1NC(=O)c1c(Cl)ccc(Cl)c1C(=O)N[C@@H](C)C[S+](C)[O-]` (stereo partly drawn) [11-28], the “logP (neutral)” value in series [1] (setting [4]) is on record as “logP (neutral) 2.90”.

As a reminder, the mortality is the percentage killed. For the compound `CSC[C@H](C)NC(=O)c1c(OC(F)(F)F)cccc1C(=O)Nc1ccc(Cn2nc(C(F)(F)F)cc2C(F)(F)F)cc1C` [13-13, N^1-(4-{[3,5-bis(trifluoromethyl)-1H-pyrazol-1-yl]methyl}-2-methylphenyl)-N^2-[(1S)-1-methyl-2-(methylthio)ethyl]-3-(trifluoromethoxy)-1,2-benzenedicarboxamide], the mortality at 100 g/ha with Myzus persicae is ≥ 70%. For the same compound, the mortality at 20 ppm in series [2] (Spodoptera litura) came to 100%. In addition, in series [3], the mortality at 100 ppm was 100%.

With `COC(=O)CNC(=O)C(C)(C)NC(=O)c1c(Cl)cccc1C(=O)Nc1ccc(Cn2nc(C(F)(F)F)cc2C(F)(F)F)cc1C` [13-121, methyl N-{2-[(4-{[3,5-bis(trifluoromethyl)-1H-pyrazol-1-yl]methyl}-2-methylphenyl)carbamoyl]-6-chlorobenzoyl)-2-methylalanyl glycinate], the mortality at 20 ppm in series [2] (setting [6]) turned out to be 100%.

`CSC[C@H](C)NC(=O)c1c(Br)cccc1C(=O)Nc1ccc(Cn2nc(C(F)(F)C(F)(F)C(F)(F)F)cc2C(F)(F)F)nc1C` [13-128]: in series [1] (setting [4]), the “logP (neutral)” value is given as 4.42.

In the case of `Cc1cc(Cn2cc(C(F)(F)C(F)(F)F)c(C(F)(F)C(F)(F)F)n2)ccc1NC(=O)c1cccc(Br)c1C(=O)N[C@@H](C)CS(C)(=O)=O` [13-140, N^1-(4-{[3,4-bis(pentafluoroethyl)-1H-pyrazol-1-yl]methyl}-2-methylphenyl)-3-bromo-N^2-[(1S)-1-methyl-2-(methylsulfonyl)ethyl]-1,2-benzenedicarboxamide], the mortality at 20 ppm in series [2] (setting [6]) came out at 100%.

With `CON=C(c1cn(Cc2ccc(NC(=O)c3cccc(I)c3C(=O)N[C@@H](C)CSC)c(C)c2)nc1C(F)(F)F)C(F)(F)F` [13-147, 3-iodo-N^2-[(1S)-1-methyl-2-(methylthio)ethyl]-N^1-[2-methyl-4-({4-[2,2,2-trifluoro-N-methoxyethanimidoyl]-3-(trifluoromethyl)-1H-pyrazol-1-yl}methyl)phenyl]-1,2-benzenedicarboxamide], the mortality at 20 ppm in series [2] (setting [6]) amounted to 100%.

As to `CSC[C@H](C)NC(=O)c1c(C#N)cccc1C(=O)Nc1ccc(Cn2nc(C(F)(F)F)cc2C(F)(F)F)cc1C` [13-172, N^1-(4-{[3,5-bis(trifluoromethyl)-1H-pyrazol-1-yl]methyl}-2-methylphenyl)-3-cyano-N^2-[(1S)-1-methyl-2-(methylthio)ethyl]-1,2-benzenedicarboxamide], the mortality at 100 g/ha in the series with Myzus persicae is ≥ 70%. In series [2] (Spodoptera litura), the mortality at 20 ppm came out at 100%. In addition, the mortality at 100 ppm in series [3] was determined as 100%.

Turning to `CSC[C@H](C)NC(=O)c1c(C(=O)Nc2ccc(Cn3nc(C(F)(F)F)cc3C(F)(F)F)nc2C)cccc1S(=O)(=O)N(C)C` [13-287], the “logP (neutral)” value in series [1] (setting [4]) is 3.42.

For `CCSC[C@H](C)NC(=O)c1c(SC)cccc1C(=O)Nc1ccc(Cn2nc(C(F)(F)F)cc2C(F)(F)F)cc1C` [13-291, N^1-(4-{[3,5-bis(trifluoromethyl)-1H-pyrazol-1-yl]methyl}-2-methylphenyl)-N^2-[(1S)-1-methyl-2-(ethylthio)ethyl]-3-methylthio-1,2-benzenedicarboxamide], the mortality at 100 g/ha with Myzus persicae (spraying amount 100 g/ha) is ≥ 70%. The mortality at 20 ppm in series [2] (setting [6]) turned out to be 100%.

With `Cc1cc(Cn2nc(C(F)(F)C(F)(F)F)nc2C(F)(F)F)ccc1NC(=O)c1cccc(Cl)c1C(=O)NC(C)(C)C=O` [14-130, 3-chloro-N^2-(1,1-dimethyl-2-oxoethyl)-N^1-(2-methyl-4-{[3-(pentafluoroethyl)-5-(trifluoromethyl)-1H-1,2,4-triazol-1-yl]methyl}phenyl)-1,2-benzenedicarboxamide], the mortality at 20 ppm in series [2] (setting [6]) was found to be 100%.

Turning to `CSC[C@H](C)NC(=O)c1c(Cl)cccc1C(=O)Nc1ccc(Cn2nc(C(F)(F)F)n(C)c2=O)nc1C` [14-320], in series [1] (setting [4]), the “logP (neutral)” value turned out to be 2.16.

As for `CSC[C@H](C)NC(=O)c1c(Cl)cccc1C(=O)Nc1ccc(CN2N=C(C(F)(F)C(F)(F)F)NC2C(F)(F)F)cc1C` (stereo partly drawn) [16-4, 3-chloro-N^1-(2-methyl-4-{[3-(pentafluoroethyl)-5-(trifluoromethyl)-4,5-dihydro-1H-1,2,4-triazol-1-yl]methyl}phenyl)-N^2-[(1S)-1-methyl-2-(methylthio)ethyl]-1,2-benzenedicarboxamide], the mortality at 20 ppm in series [2] (Spodoptera litura) came to 100%. The mortality at 100 ppm in series [3] was 100%.

In the case of `CSC[C@H](C)NC(=O)c1c(Cl)cccc1C(=O)Nc1ccc(CN2N=C(C(F)(F)C(F)(F)F)N(C(C)=O)C2C(F)(F)F)cc1C` (stereo partly drawn) [16-6, N^1-(4-{[4-acetyl-3-(pentafluoroethyl)-5-(trifluoromethyl)-4,5-dihydro-1H-1,2,4-triazol-1-yl]methyl}-2-methylphenyl)-3-chloro-N^2-[(2S)-1-(methylsulfanyl)propan-2-yl]-1,2-benzenedicarboxamide], the mortality at 20 ppm in series [2] (setting [6]) worked out at 100%.
